Assay results from PubChem BioAssay (NCI).
“And” between values parts separate entries of the source, which are not always exact repeats. Equal entries are not always repeated.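 Assay format: 96-well plates, 48-hour exposure. The concentration for 50% growth inhibition is given as GI50. TGI is the concentration that stops growth completely.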

What was measured:
Assay in all cases: NCI tumour cell line growth inhibition, 48 h
HL-60(TB) leukemia = test system: HL-60(TB) leukemia
A498 renal = test system: A498 renal
NCI-H23 lung = test system: NCI-H23 lung
SF-295 CNS = test system: SF-295 CNS
MDA-MB-435 = test system: MDA-MB-435
HCT-15 colon = test system: HCT-15 colon
NCI-H226 lung = test system: NCI-H226 lung
COLO 205 colon = test system: COLO 205 colon
SN12C renal = test system: SN12C renal
K-562 leukemia = test system: K-562 leukemia

SMILES	TGI (HL-60(TB) leukemia) [µM]	TGI (A498 renal) [µM]	TGI (NCI-H23 lung)	TGI (SF-295 CNS)	TGI (MDA-MB-435) [µM]	TGI (HCT-15 colon) [µM]	TGI (NCI-H226 lung) [µM]	TGI (COLO 205 colon) [µM]	TGI (SN12C renal)	TGI (K-562 leukemia) [µM]	GI50 (HL-60(TB) leukemia) [µM]	GI50 (SF-295 CNS) [µM]
C=C[C@H]1CN2CC[C@H]1C[C@@H]2[C@@H](O)c1ccnc2ccccc12	> 100	> 100	> 100 µM	> 100 µM	> 100	> 100	> 100	> 100	> 100 µM	> 100		
CO[P@]1(=O)O[C@@H](c2ccccc2)[C@H](O)[C@]1(O)c1ccccc1	> 100	> 100	> 100 µM	> 100 µM	> 100	> 100	> 100	> 100	> 100 µM	> 100		
CCCCCCCCOCC1S(=O)(=O)OCCOS1(=O)=O	> 100	> 100	> 100 µM	> 100 µM	> 100	> 100	> 100	> 100	> 100 µM	> 100		
COc1ccc2c(c1)CC[C@@H]1[C@@H]2CC[C@]2(C)/C(=N/OCCN3CCCCC3)CC[C@@H]12	6.35	23	25 µM	12.6 µM	16.9	6.23	18.7	3.18	17 µM	9.62		
CN(C)c1ccc(/C=N/NC2=N/C(=C\c3ccco3)C(=O)N2)cc1	> 100	> 100	> 100 µM	> 100 µM	> 100	> 100	> 100	> 100	> 100 µM	> 100		
CC1=C(N2CC2)C(=O)c2nc3n(c2C1=O)CCC3O (stereo unspecified)	8.47	0.521	0.262 µM	0.512 µM	0.0484	29.6	2.14	1.33	2.71 µM	5.06		
CN(C)CCCOC(=O)C(O)(Cc1ccccc1)C1CC1 (stereo unspecified)	> 100	> 100	> 100 µM	> 100 µM	> 100	> 100	> 100	> 100	> 100 µM	> 100		
COc1cc(C2c3cc4c(cc3OC(N3CCOCC3)C2C)OCO4)cc(OC)c1O (stereo unspecified)	> 26	41.2	> 100 µM	15.8 µM	6.27	25.5	> 66.3	41.9	54.3 µM	> 75.5		
O=C1NC(N2CCOCC2)=N/C1=C\c1ccccc1O	> 100	> 100	> 100 µM	> 100 µM	> 100	> 100	> 100	> 100	> 100 µM	> 100		
COC(=O)CC1C2CC3C(C2=O)C13 (stereo unspecified)	> 100	> 100	> 100 µM	> 100 µM	> 100	> 100	> 100	> 100	> 100 µM	> 100		
CN(C)CCOc1ccc(-c2c(Oc3ccc(Cl)cc3)c(=O)oc3ccccc23)cc1	> 100	43	34.8 µM	> 25.7 µM	> 31.2	22.8	> 53.9	> 39	> 43.6 µM	> 60		
CC(=O)C(=C(I)I)c1ccccc1	48.2	40.7	36.2 µM	50.1 µM	29.9	> 100	27.3	28.9	28.4 µM	53.5		
COc1cc2c(cc1OCCCC(=O)Nc1cc(C(=O)Nc3cc(C(=O)NCCCN(C)C)n(C)n3)n(C)n1)N=CC1CCCN1C2=O (stereo unspecified)	32.1	59.2	39.1 µM	> 100 µM	39	37.6	> 100	26.3	30.1 µM	27.7		
COc1ccc2nc3c([N+](=O)[O-])ccc4c3c(c2c1)NCCN4C	> 100	3.85	6.39 µM	7.58 µM	2.4	2.96	3.59	2.54	9.29 µM	> 100		
CN(C)Cc1cc(C(=O)O)cc(CN(C)C)c1O	> 100	> 100	> 100 µM	> 100 µM	> 100	> 100	> 100	> 100	> 100 µM	> 100		
CCCCCc1c(CCCC)c(=O)[nH]c2cc(CNCC(OC)OC)ccc12	43.9	28.9	32.8 µM	32.2 µM	24	23.8	40.6	6.24	28.1 µM	5.63		
COC(=O)C(Cc1ccccc1)NC(=O)CNC(=O)CSc1nnc(COc2ccc(Cl)cc2)n1-c1ccccc1 (stereo unspecified)	13.7	29.4	35.6 µM	31.7 µM	35	36.4	36.5	31.9	32.5 µM	> 75.6		
COC(=O)/C=C1/OC(c2ccccc2)=C(Cl)C1=O	16.2	68.2	39.4 µM	> 65.1 µM	39.5	25.4	> 84.6	30.1	> 60.1 µM	25.9		

SMILES	TGI (HL-60(TB) leukemia) [µM]	TGI (A498 renal) [µM]	TGI (NCI-H23 lung)	TGI (SF-295 CNS)	TGI (MDA-MB-435) [µM]	TGI (HCT-15 colon) [µM]	TGI (NCI-H226 lung) [µM]	TGI (COLO 205 colon) [µM]	TGI (SN12C renal)	TGI (K-562 leukemia) [µM]	GI50 (HL-60(TB) leukemia) [µM]	GI50 (SF-295 CNS) [µM]
NC1CCC(c2cc3ccccc3s2)(N2CCCCC2)CC1 (stereo unspecified)	4.58	22.9	3.23 µM	12.7 µM	2.63	3.76	43.7	3.19	3.1 µM	3.44		
O=[N+]([O-])C(=C(NCc1ccccc1)NCc1ccccc1)C(Cl)=C(Cl)Cl	45.9	> 100	96.9 µM	60.8 µM	46.7	62.8	90.7	36.1	> 100 µM	54.2		
Fc1cccc2nc(-c3ccccc3)cc(OCc3ccccc3)c12	> 100	> 100	> 100 µM	> 100 µM	> 100	> 100	> 100	> 100	> 100 µM	> 100		
CC1(C)C2CCC1C(=O)C(C=O)C2 (stereo unspecified)	> 100	> 100	> 100 µM	> 100 µM	> 100	> 100	> 100	> 100	> 100 µM	> 100		
N#CC(c1ccccc1)c1cccc2ccccc12 (stereo unspecified)	57.7	76.5	> 100 µM	> 100 µM	44.1	> 100	> 100	> 100	> 100 µM	> 100		
CSc1n[n+](C)cc(N)c1N	> 100	> 100	> 100 µM	> 100 µM	> 100	> 100	> 100	> 100	> 100 µM	> 100		
CN(C)Cc1cc(N=Nc2ccc(Cl)c(Cl)c2)ccc1O	9.44	23.9	28.1 µM	31.9 µM	23.9	19.1	40.7	8.26	27.8 µM	14.1		
O=C(CCCC(=O)N1CC(CCl)c2ccc([N+](=O)[O-])cc21)N1CC(CCl)c2ccc([N+](=O)[O-])cc21 (stereo unspecified)	> 100	> 100	> 100 µM	> 100 µM	> 100	> 100	> 100	> 100	> 100 µM	> 100		
CC1=Nn2c(nc3sc4c(c3c2=O)CCCC4)SC1	> 87.4	> 100	> 100 µM	> 100 µM	> 100	> 100	> 100	> 100	> 100 µM	> 100		
COC1C(O)=C2C(=O)OC(C)(O)/C=C/C=C\C=C/C=C/C(c3ccccc3)NC(=O)/C=C/C=C/C=C/C=C/C2(C)C1O (stereo unspecified)		0.0976	0.119 µM and 0.129 µM	0.0747 µM and 0.206 µM	0.142	0.0526	0.156	0.0166	0.0649 µM and 0.0906 µM	> 100	0.113	0.0296
COc1cccc(C2c3cc4c(cc3OC(N3CCOCC3)C2C)OCO4)c1O (stereo unspecified)	6.69	20.8	52.6 µM	42.9 µM	6.57	27.9	20.9	22.7	60.5 µM	38.1		
O=C(CSc1nc2ccc(I)cc2c(=O)n1Cc1ccccc1)Nc1ccc(Br)cc1	> 100	68.1	> 100 µM	> 100 µM	> 100	> 100	> 100	> 100	> 100 µM	> 100		
c1ccc2c(c1)SC1Sc3ccccc3[S+]21 (stereo unspecified)	60.9	> 100	37.4 µM	> 100 µM	60.9	> 79.5	96.9	30.1	33.6 µM	> 23.3		
C=C1CCCCCCCCCCC1S(=O)c1ccccc1 (stereo unspecified)	39.2	> 100	> 100 µM	> 100 µM	59.3	> 100	> 100	57.3	55.4 µM	82.6		
c1ccc(N=NNNc2ccc(-c3nc4ccccc4[nH]3)cc2)cc1	62.1	> 100	> 100 µM	68 µM	> 100	> 100	> 100	> 100	98.1 µM	94.6		
CCN(CC)CCNc1ccc(N=Nc2ccc(S(N)(=O)=O)cc2)c2ccccc12	36.9	29.7	50.7 µM	15.1 µM	23.6	> 100	72.7	> 100	81 µM	> 100		
CCN(CC)C(=O)CCCCCCCCC1CO1 (stereo unspecified)	> 100	> 100	> 100 µM	> 100 µM	> 100	> 100	> 100	> 100	> 100 µM	> 100		
